Blank lines part the entries; values can stand above or below the compound they belong to.
How the values were obtained:
Type in all cases: cell-based
[1] = system: Poly/Mono-ADP Ribose in U2OS cells; assay: PAR in cell western assay (parylation) in U2OS cells; settings: Homo sapiens; U2OS cells, 6 hrs, 2 mM H2O2; read-out: Parylation (U2OS)
Protocol: U2OS cells are seeded at 2667 cells per well in 24 ul medium into poly-D lysine-coated 384 well plate and incubated in the TC incubator for O/N
The next day, test comps are diluted in a source plate and 6 μL of the diluted comp is added to the cell plate; mixed well and incubated for 6 hrs. DNA damage is induced with 2 mM H2O2 for 10 min. After discarding the medium, cells are fixed in ice cold Methanol at for 20 min at −20C. After a wash step at room temperature, cells are permeabilized with 0.05% NP-40 in PBS for 10 min, followed by wash steps. Cells are blocked with 1% BSA, at room temperature for 1 hr. Cells are stained with anti mono/polyADP ribose antibody (E6F6A, Cell signaling, 1:5000) in 1×PBS/1% BSA/0.05% Tween o/n at 4C.
Next Day, cells are washed and incubated with anti-Rabbit 800CV (Licor antibody, 1:500) and CellTag 700 (Licor, 1:800) in 1×PBS/1% BSA/0.05% Tween for 1 h. After washing, plates are scanned using LICOR and are quantified.
Parylation inhibition is reported as % control inhibition.
(§1) The letter codes for the PARP1-enzyme assay include: A (<1 nM), B (>1-10 nM), C (>10-100 nM), D (>100-1000 nM), E (>1000 nM), and “-” is not tested. The letter codes for the PARP trapping assay, and parylation assay include: A (<10 nM), B (>10-100 nM), C (>100-1000 nM), […], E (>10000 nM), and “-” is not tested.

A2780 cells = assay: Cell proliferation assay (A2780); settings: Homo sapiens, 168 h, 7 days
Protocol: (§2) Cells are counted, diluted to desired density and 40 μL of cell suspension is added into each 384-well tissue-culture treated plates. Plates are incubated in Tissue Culture incubator at 37° C./5% C02 overnight.
(§3) Next day, 40 nl test compounds that are prepared from source plates are transferred to the seeded cells from overnight. Plates are incubated at 37° C./5% C02 for a total of 7 days. After 7-day incubation, plates are equilibrated to room temperature and 30 ul of Cell Counting-Lite is added to each well for a 30 min incubation followed by reading on EnVision.
(§4) The letter codes for the cell proliferation assay in A2780, HCC1806, and MDA-MB-436 cells include: A (<10 nM), B (>10-100 nM), C (>100-1000 nM), D (>1000-10000 nM), E (>10000 nM), and “-” is not tested.

MDA-MB-436 cells = assay: Cell proliferation assay (MDA-MB-436); settings: Homo sapiens, 168 h, 7 days
Protocol: as §2, §3, §4

PARP1 = PARP1 (Homo sapiens, UniProt P09874); assay: PARP trapping assay in U2OS cells; set-up: endogenous in cells; host or cells: U2OS; settings: U2OS cells, MMS, 4 hrs; read-out: PARP Trapping (U2OS)
PARP1, sequence (P09874 whole entry): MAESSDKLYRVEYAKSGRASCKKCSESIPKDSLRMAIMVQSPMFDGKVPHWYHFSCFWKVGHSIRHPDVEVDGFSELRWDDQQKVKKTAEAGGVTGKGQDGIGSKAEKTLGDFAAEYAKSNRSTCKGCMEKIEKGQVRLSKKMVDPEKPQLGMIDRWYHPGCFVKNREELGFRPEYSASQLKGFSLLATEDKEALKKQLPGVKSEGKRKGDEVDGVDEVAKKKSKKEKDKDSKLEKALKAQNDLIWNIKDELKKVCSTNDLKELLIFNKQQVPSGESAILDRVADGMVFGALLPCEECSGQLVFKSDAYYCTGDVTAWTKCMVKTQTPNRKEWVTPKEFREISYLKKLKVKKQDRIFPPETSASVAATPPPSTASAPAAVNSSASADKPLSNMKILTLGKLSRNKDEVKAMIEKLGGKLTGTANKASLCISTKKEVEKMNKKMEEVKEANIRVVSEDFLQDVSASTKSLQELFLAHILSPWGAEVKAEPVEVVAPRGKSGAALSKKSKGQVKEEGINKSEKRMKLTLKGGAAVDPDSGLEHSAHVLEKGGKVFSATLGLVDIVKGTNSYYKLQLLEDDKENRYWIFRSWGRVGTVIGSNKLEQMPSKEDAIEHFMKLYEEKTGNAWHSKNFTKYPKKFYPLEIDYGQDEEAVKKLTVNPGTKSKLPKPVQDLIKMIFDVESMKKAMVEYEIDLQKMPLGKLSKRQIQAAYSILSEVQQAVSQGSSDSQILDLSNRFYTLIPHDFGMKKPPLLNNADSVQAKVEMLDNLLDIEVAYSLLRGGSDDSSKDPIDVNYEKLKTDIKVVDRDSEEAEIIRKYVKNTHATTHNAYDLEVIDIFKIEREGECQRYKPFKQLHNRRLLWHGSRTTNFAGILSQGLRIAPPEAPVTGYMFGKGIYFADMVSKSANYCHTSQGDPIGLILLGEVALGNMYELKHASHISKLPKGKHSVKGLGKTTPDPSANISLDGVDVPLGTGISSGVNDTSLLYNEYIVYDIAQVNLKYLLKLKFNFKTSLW
Protocol: U2OS cells are seeded at 15,000 cells/well in 90 ul medium and incubated in the TC incubator for overnight.
Next day, test compounds are prepared in a source plate along with addition of DNA damage reagent MMS simultaneously and 10 ul of the diluted mixture is added to the cell plate and incubated for 4 hrs under T/C conditions.
After 4 hrs, following aspiration and washing, add 100 ul of cold cytoskeleton removal buffer (0.5% Triton X-100) and incubated for 10 min. At the end of incubation, slowly the buffer is removed, and cells are fixed with ice cold MeOH for 15 min at −20C. Followed by wash steps, cells are blocked with 1×PBS/3% BSA/0.05% Tween for 1 h at room temperature.
Cells are stained with anti PARP1 antibody (abeam ab227244, 1:1000), in 1×PBS/1% BSA overnight at 4C.
Wash and add DAPI, scan cells in Celigo.
Data Analysis: DAPI staining is used to segment nuclei and AF488 fluorescence intensity per nucleus is measured.
as §1

HCC1806 cells = assay: Cell proliferation assay (HCC1806); settings: Homo sapiens, 168 h, 7 days
Protocol: as §2, §3, §4

SMILES: O=C(N[C@@H](C(=O)N1CCN(CC23CCC(C(=O)N4CCN(C(=O)c5cc(Cc6n[nH]c(=O)c7ccccc67)ccc5F)CC4)(CC2)CO3)CC1)C1CCCCC1)c1cccc([C@H]2CCCN(C(=O)CNC3CC3)C2)c1 (racemic) [Compound I-381]
IC50 [1]: 100 to 1000 nM
IC50 (A2780 cells): 10 to 100 nM
IC50 (MDA-MB-436 cells): 10 to 100 nM
IC50 (PARP1): < 10 nM

SMILES: CC(C)(C)C(=O)N1CCC[C@@](F)(c2cccc(C(=O)N[C@@H](C(=O)N3CCC(OC4CCN(CC(=O)N5CCN(C(=O)c6cc(Cc7n[nH]c(=O)c8ccccc78)ccc6F)CC5)CC4)CC3)C3CCCCC3)c2F)C1 [Compound I-994]
IC50 [1]: 100 to 1000 nM
IC50 (A2780 cells): 10 to 100 nM
IC50 (HCC1806 cells): 10 to 100 nM
IC50 (MDA-MB-436 cells): < 10 nM

SMILES: CCc1cccc(-c2cc(N)c(C(=O)N3CCC(CN4CCN(CC(=O)N5CCN(C(=O)c6cc(Cc7n[nH]c(=O)c8ccccc78)ccc6F)CC5)CC4)CC3)c(F)c2)c1 [Compound I-409]
IC50 [1]: 100 to 1000 nM
IC50 (A2780 cells): 100 to 1000 nM
IC50 (MDA-MB-436 cells): < 10 nM
IC50 (PARP1): 100 to 1000 nM

SMILES: CCc1cccc(-c2cnc(C(=O)N3CCC(CC(=O)N4CCN(C(=O)c5cc(Cc6n[nH]c(=O)c7ccccc67)ccc5F)CC4)CC3)c(NC(=O)CNCc3cccc(C)c3)c2)c1 [Compound I-412]
IC50 [1]: 100 to 1000 nM
IC50 (A2780 cells): 10 to 100 nM
IC50 (MDA-MB-436 cells): < 10 nM
IC50 (PARP1): 10 to 100 nM

SMILES: CC(C)(C)C(=O)N1CCCC(c2cccc(C(=O)N[C@@H](C(=O)N3CCC(OC4CCN(CC(=O)N5CCN(C(=O)c6cc(Cc7n[nH]c(=O)c8ccccc78)ccc6F)CC5)CC4)CC3)C3CCCCC3)c2F)C1 (some centres unmarked) [Compound I-661]
IC50 [1]: 100 to 1000 nM
IC50 (HCC1806 cells): 10 to 100 nM
IC50 (MDA-MB-436 cells): < 10 nM
IC50 (PARP1): 10 to 100 nM

SMILES: CC1(C(=O)N2CCCC(c3cccc(C(=O)N[C@@H](C(=O)N4CCC(OC5CCN(CC(=O)N6CCN(C(=O)c7cc(Cc8n[nH]c(=O)c9ccccc89)ccc7F)CC6)CC5)CC4)C4CCCCC4)c3F)C2)CC1 (some centres unmarked) [Compound I-660]
IC50 [1]: 100 to 1000 nM
IC50 (HCC1806 cells): 10 to 100 nM
IC50 (MDA-MB-436 cells): < 10 nM
IC50 (PARP1): 10 to 100 nM

SMILES: O=C(N[C@@H](C(=O)N1CCC(OC2CCN(CC(=O)N3CCN(C(=O)c4cc(Cc5n[nH]c(=O)c6ccccc56)ccc4F)CC3)CC2)CC1)C1CCCCC1)c1cccc(C2CCCN(C(=O)C34CC(C3)C4)C2)c1F (some centres unmarked) [Compound I-637]
IC50 [1]: 100 to 1000 nM
IC50 (HCC1806 cells): 10 to 100 nM
IC50 (MDA-MB-436 cells): 100 to 1000 nM
IC50 (PARP1): 10 to 100 nM

SMILES: O=C(N[C@@H](C(=O)N1CCN(CC(=O)N2CCN(C(=O)c3cc(Cc4n[nH]c(=O)c5ccccc45)ccc3F)CC2)CC1)C1CCCCC1)c1cc(C2CCCN(C(=O)C3CC3)C2)ccc1F (some centres unmarked) [Compound I-453]
IC50 [1]: 100 to 1000 nM
IC50 (A2780 cells): 10 to 100 nM
IC50 (MDA-MB-436 cells): 10 to 100 nM
IC50 (PARP1): 100 to 1000 nM

SMILES: O=C(N[C@@H](C(=O)N1CCN(CC23CCC(C(=O)N4CCN(C(=O)c5cc(Cc6n[nH]c(=O)c7ccccc67)ccc5F)CC4)(CC2)CO3)CC1)C1CCCCC1)c1cccc([C@@H]2CCCN(C(=O)CNC3CC3)C2)c1 [Compound I-382]
IC50 [1]: 10 to 100 nM
IC50 (A2780 cells): 10 to 100 nM
IC50 (MDA-MB-436 cells): < 10 nM
IC50 (PARP1): 10 to 100 nM

More lines, now with the values ahead:

IC50 [1]: 10 to 100 nM
IC50 (A2780 cells): 100 to 1000 nM
IC50 (MDA-MB-436 cells): 10 to 100 nM
IC50 (PARP1): 100 to 1000 nM
SMILES: CCc1cccc(-c2cnc(C(=O)N3CCC(CN4CCN(CC(=O)N5CCN(C(=O)c6cc(Cc7n[nH]c(=O)c8ccccc78)ccc6F)CC5)CC4)CC3)c(NC(=O)CN3CCOCC3)c2)c1 [Compound I-333]

IC50 [1]: < 10 nM
IC50 (HCC1806 cells): 10 to 100 nM
IC50 (MDA-MB-436 cells): < 10 nM
IC50 (PARP1): < 10 nM
SMILES: O=C(CN1CCC(OC2CCN(C(=O)c3c(F)cc(-c4ccncc4)cc3F)CC2)CC1)N1CCN(C(=O)c2cc(Cc3n[nH]c(=O)c4ccccc34)ccc2F)CC1 [Compound I-727]

IC50 [1]: 10 to 100 nM
IC50 (HCC1806 cells): 10 to 100 nM
IC50 (MDA-MB-436 cells): < 10 nM
IC50 (PARP1): 10 to 100 nM
SMILES: O=C(N[C@@H](C(=O)N1CCC(CC(=O)N2CCN(C(=O)c3cc(Cc4n[nH]c(=O)c5ccccc45)ccc3F)CC2)CC1)C1CCCCC1)c1cccc(C2CCCN(C(=O)C3CC3)C2)c1F (some centres unmarked) [Compound I-715]

IC50 [1]: 10 to 100 nM
IC50 (A2780 cells): 10 to 100 nM
IC50 (MDA-MB-436 cells): 100 to 1000 nM
IC50 (PARP1): 100 to 1000 nM
SMILES: O=C(N[C@@H](C(=O)N1CCN(CC(=O)N2CCN(C(=O)c3cc(Cc4n[nH]c(=O)c5ccccc45)ccc3F)CC2)CC1)C1CCCCC1)c1cccc(C2CCCN(C(=O)C3CC3)C2)c1F (some centres unmarked) [Compound I-454]

IC50 [1]: 10 to 100 nM
IC50 (A2780 cells): 100 to 1000 nM
IC50 (MDA-MB-436 cells): 100 to 1000 nM
IC50 (PARP1): 10 to 100 nM
SMILES: CCOc1cc(OC)ccc1CNCC(=O)N1CCCC(c2ccc(F)c(C(=O)N[C@@H](C(=O)N3CCN(CC4CCN(CC(=O)N5CCN(C(=O)c6cc(Cc7n[nH]c(=O)c8ccccc78)ccc6F)CC5)CC4)CC3)C3CCCCC3)c2)C1 (some centres unmarked) [Compound I-308]

IC50 [1]: < 10 nM
IC50 (HCC1806 cells): 10 to 100 nM
IC50 (MDA-MB-436 cells): < 10 nM
IC50 (PARP1): 10 to 100 nM
SMILES: O=C(CN1CCC(OC2CCN(C(=O)c3ncc(-c4ccccc4)cc3F)CC2)CC1)N1CCN(C(=O)c2cc(Cc3n[nH]c(=O)c4ccccc34)ccc2F)CC1 [Compound I-709]

IC50 [1]: 10 to 100 nM
IC50 (HCC1806 cells): 10 to 100 nM
IC50 (MDA-MB-436 cells): < 10 nM
IC50 (PARP1): 10 to 100 nM
SMILES: O=C(N[C@@H](C(=O)N1CCC(OC2CCN(CC(=O)N3CCN(C(=O)c4cc(Cc5n[nH]c(=O)c6ccccc56)ccc4F)CC3)CC2)CC1)C1CCCCC1)c1ccc(N2CCN(C(=O)C3CC3)CC2)cc1F [Compound I-745]

IC50 [1]: 10 to 100 nM
IC50 (A2780 cells): 10 to 100 nM
IC50 (MDA-MB-436 cells): < 10 nM
IC50 (PARP1): 100 to 1000 nM
SMILES: CCc1cccc(-c2cnc(C(=O)N3CCC(CN4CCN(CC(=O)N5CCN(C(=O)c6cc(Cc7n[nH]c(=O)c8ccccc78)ccc6F)CC5)CC4)CC3)c(C#N)c2)c1 [Compound I-419]

IC50 [1]: 10 to 100 nM
IC50 (HCC1806 cells): 10 to 100 nM
IC50 (MDA-MB-436 cells): < 10 nM
IC50 (PARP1): 10 to 100 nM
SMILES: CC1(C)CC(c2ccc(C(=O)N[C@@H](C(=O)N3CCC(OC4CCN(CC(=O)N5CCN(C(=O)c6cc(Cc7n[nH]c(=O)c8ccccc78)ccc6F)CC5)CC4)CC3)C3CCCCC3)c(F)c2)CCN1C(=O)C1CC1 (some centres unmarked) [Compound I-743]

IC50 [1]: 10 to 100 nM
IC50 (A2780 cells): 10 to 100 nM
IC50 (MDA-MB-436 cells): < 10 nM
IC50 (PARP1): 10 to 100 nM
SMILES: O=C(N[C@@H](C(=O)N1CCN(CC23CCC(C(=O)N4CCN(C(=O)c5cc(Cc6n[nH]c(=O)c7ccccc67)ccc5F)CC4)(CC2)CO3)CC1)C1CCCCC1)c1cccc(C2CCCN(C(=O)CNC3CC3)C2)c1 (some centres unmarked) [Compound I-380]

IC50 [1]: < 10 nM
IC50 (HCC1806 cells): 10 to 100 nM
IC50 (MDA-MB-436 cells): < 10 nM
IC50 (PARP1): 10 to 100 nM
SMILES: O=C(CN1CCC(OC2CCN(C(=O)c3c(F)cc(-c4ccccc4)cc3F)CC2)CC1)N1CCN(C(=O)c2cc(Cc3n[nH]c(=O)c4ccccc34)ccc2F)CC1 [Compound I-634]

Source: patent publication US20250127907A1, “PARP INHIBITORS” (Stablix, Inc., priority 2023, published 2025)
